From patent US20230158033A1, “Method of Treating Pemphigus by Administering (R)-2-[3-[4-Amino-3-(2-Fluoro-4-Phenoxy-Phenyl)Pyrazolo[3,4-D]Pyrimidin-1-YL]Piperidine-1-Carbonyl]-4-Methyl-4-[4-(Oxetan-3-YL)Piperazin-1-YL]Pent-2-Enenitrile” (Principia Biopharma Inc., priority 2019, published 2023)
Values joined by “and” are separate entries in the source; they are usually repeats but may differ in a detail not shown here. Identical values can stand only once.

What was measured:
[1] = test system: patients with newly diagnosed or relapsing pemphigus; assay: Phase 2 study Part A (400 mg BID up to 600 mg BID, 12-week treatment): clinical activity; type: in vivo, human; conditions: for patients who achieved complete remission (CR): n = 24
[2] = Plasma concentration of PRN1008, Part A; type: in vivo; conditions: human, oral, read-out: plasma levels at 12 hours post-dose (trough point)
[3] = test system: patients with pemphigus (PV and PF); assay: Interim data as of Jan. 18, 2018 in patients with pemphigus (PV and PF); type: in vivo, human
Description: As of Jan. 18, 2018, PRN1008 had been administered to 21 patients with pemphigus (pemphigus vulgaris (PV) and pemphigus foliaceus (PF)), 18 of whom had 4 or more weeks of treatment with […]1008 was well-tolerated in this study. […] Three patients achieved CDA on no CS. Two patients required high-dose CS temporarily during PRN1008 treatment due to worsening of disease activity. Four patients achieved complete remission (CR) on 1 to 20 mg/day of CS, three achieved CR at Week 13 (25%), and one achieved CR at Week 21.

[4] = test system: fetal development, male fertility; assay: Preclinical reproductive toxicity studies; type: in vivo
[5] = test system: rats with collagen-induced arthritis; conditions: rats with collagen-induced arthritis (Hill R et al., 2015); cited from earlier work
[6] = test system: canines with naturally occurring PF; conditions: canines with naturally occurring PF (Murrell DF, 2019); cited from earlier work
healthy volunteers = conditions: Phase 1, healthy volunteers (Smith PF 2017); cited from earlier work
patients with pemphigus = assay: Safety (adverse events), Part B
Description: (§1) Specific assessments to evaluate treatment safety included the following: (1) the frequency and type of AEs; (2) clinical laboratory testing; (3) SNAQ appetite questionnaire; and (4) vital signs. Typically, patients remained under observation in the clinic for 2 hours after administration of the first PRN1008 dose and until the PK sample was drawn.
(§2) The primary safety outcome measures were incidence of treatment-emergent AEs (TEAEs), including clinically significant changes in physical examination, laboratory tests, and vital signs.
(§3) Investigators were instructed to report in detail all AEs encountered during the clinical study in the source documents, from the date of participant consent throughout the follow-up visit. Investigators were also instructed to report pre-existing conditions that worsen during a study were instructed as AEs, with the exception of the disease under study as it was expected that there may be variation in pemphigus disease activity intended to be captured in other measurements.
(§4) Investigators were instructed to grade AEs based on the NCI CTCAE, Version 4.0 or higher.
(§5) Investigators were instructed to use their knowledge of the study participant, the circumstances surrounding the event, and an evaluation of any potential alternative causes to determine whether or not an AE is considered to be related to the study drug, indicating “yes” or “no” accordingly.

[7] = test system: anti-dsg 1 and anti-dsg 3 autoantibody levels; assay: Anti-dsg autoantibody levels by ELISA, Part A; conditions: including patients with high autoantibody levels at baseline
Description: PK outcome measures investigated included plasma concentrations of PRN1008 at approximately the time of maximum concentration on Day 1 and at various subsequent times during outpatient dosing.

[8] = test system: patients with pemphigus (Safety Population); assay: Safety (treatment-emergent adverse events), Part A
Description: as §1, §2, §3, §4, §5

[9] = Relative bioavailability study, tablet vs liquid formulation
[10] = test system: patients with newly diagnosed or relapsing pemphigus; assay: Phase 2 study Part B (400 mg QD up to 600 mg BID, 24-week treatment): clinical activity; conditions: for Median PDAI: 12 at day 1
Description: Generally, clinical response is shown by some improvement seen in first 2 weeks with CDA achieved by the Week 5 visit. […] Typically, clinical response and tolerability were assessed at each visit.
PDAI and ABSIS assessments were employed to monitor pemphigus disease activity. […] Photography was used to document skin disease changes where appropriate.
Part B was a multicenter, open-label, single-arm Phase 2 study (NCT02704429) designed to further evaluate the efficacy and safety of PRN1008 in pemphigus patients. Patients received an initial dose of 400 mg PRN1008 once a day (QD) with possible dose adjustment up to 600 mg BID at investigator discretion. Treatment duration was 24 weeks with an additional 4 weeks of follow-up off treatment.

[11] = healthy volunteer population (Evans 2013); cited from earlier work

## CC(C)(C=C(C#N)C(=O)N1CCC[C@@H](n2nc(-c3ccc(Oc4ccccc4)cc3F)c3c(N)ncnc32)C1)N1CCN(C2COC2)CC1 [PRN1008, (R)-2-[3-[4-amino-3-(2-fluoro-4-phenoxy-phenyl)pyrazolo[3,4-d]pyrimidin-1-yl]piperidine-1-carbonyl]-4-methyl-4-[4-(oxetan-3-yl)piperazin-1-yl]pent-2-enenitrile]
[1]
  Efficacy across subgroups: 43-64%
  additional patients who achieved CR at Week 13 without CS use: four
  patients who achieved CDA at or prior to the Week 5 visit without the use of CS: Three
  patients who did not require dose escalation to achieve response: 90%
  patients who needed dose escalation beyond the standard 400 mg bid: three
[1]; 400 mg BID (up to 600 mg BID), 2 weeks / study day 15, n = 26
  patients who achieved control of disease activity (CDA): 27%
[1]; 400 mg BID subgroup, 12 of 23
  CDA with low dose CS by Day 29, dosing subgroup: 52%
[1]; 500 mg BID subgroup, 1 of 1
  CDA with low dose CS by Day 29, dosing subgroup: 100%
[1]; 600 mg BID subgroup, 1 of 2
  CDA with low dose CS by Day 29, dosing subgroup: 50%
[1]; 4 weeks / Day 29, CS <= 0.5 mg/kg/day, n = 26 (primary endpoint), 0.5 mg/kg/day
  patients who achieved control of disease activity (CDA) with low dose CS: 54% and > 50%
[1]; 6 of 8
  CDA rate in newly diagnosed patients: 75%
[1]; 6 of 26
  patients who achieved CR during the study period: 23%
[1]; 12 weeks (treatment period), patients that completed the study
  patients who achieved complete remission (CR): 16.7% and 17%
[1]; 12 weeks / Day 85
  patients who achieved control of disease activity (CDA) with low dose CS: 73%
[1]; 13 of 18
  CDA rate in relapsing patients: 72%
[1]; 24 weeks (12 weeks on, 12 weeks off treatment; follow-up by Day 141)
  patients who achieved complete remission (CR): 25%
[1]; all of 11 patients with milder disease
  PDAI scores on the Day 85 visit: ≤ 5
[1]; all patients, SD = 10, baseline 14 mg/day (SD = 11)
  Mean CS dose after 12 weeks of treatment: 12 mg/day
[1]; dropped from 14 mg/day at baseline
  mean CS dose at CR: 8 mg/day
[1]; follow-up period
  additional patients who achieved CR on CS <= 0.5 mg/kg/day by Day 141: two
[1]; four patients of 26
  patients who achieved CR on CS doses <= 0.5 mg/kg/day by Day 85: 15%
[1]; in the 12 weeks off PRN1008
  patients who needed CS rescue > 0.5 mg/kg: 4 patients
[1]; over 12 weeks of treatment
  median reduction in PDAI scores: 70%
[1]; patients who achieved CR, range 1-20 mg
  mean CS dose at the time CR was achieved: 8 mg
[1]; post-treatment
  median CR duration: 96 days
[1]; post-treatment, range 0.7-20 mg/day
  mean CS dose during CR duration: 8 mg/day
[1]; slightly higher than overall mITT population
  CDA rate in patients with a positive anti-dsg 3 antibody: 64%
[2]
  concentration at 12 h: 9.5 ng/mL
[3]
  patients who achieved CDA on no CS: Three
  patients who achieved CR at Week 21: one
  patients who achieved complete remission (CR) on 1 to 20 mg/day of CS: Four
[3]; 11 of 18 patients with efficacy data
  patients who met the primary endpoint CDA on CS <= 0.5 mg/kg/day by the Week 5 visit: 61%
[3]; 21 patients with pemphigus
  tolerability: well-tolerated
[3]; during PRN1008 treatment
  patients who required high-dose CS temporarily due to worsening of disease activity: Two
[3]; three patients
  patients who achieved CR at Week 13: 25%
[4]
  reproductive toxicity: not expected to harm fetal development or male fertility
[5]
  disease symptoms and outcomes: improved disease symptoms and outcomes
[6]
  disease symptoms and outcomes: improved disease symptoms and outcomes
Healthy volunteers
  discontinuation due to an adverse event: no participants discontinued treatment due to an adverse event
  most commonly reported adverse events: gastrointestinal adverse events, including nausea/vomiting and diarrhea
  serious adverse events or deaths: No serious adverse events or deaths were reported
Patients with pemphigus
  tolerability: well tolerated
Patients with pemphigus; all treatment-related AEs
  severity of treatment-related AEs: mild-moderate and transient
Patients with pemphigus; mild to moderate (grade 1 and 2)
  Treatment-related AEs with an incidence greater than 10%: nausea, abdominal distension, infection, and oropharyngeal pain
Patients with pemphigus; of 15, grade 1 nasopharyngitis, grade 1 tracheitis
  patients who reported a mild related infection: 2 patients
[7]
  median reduction of autoantibody levels: up to 65%
[8]; Part A
  AEs commonly associated with marketed BTKi (major hemorrhage, atrial fibrillation, thrombocytopenia/neutropenia): no cases
  AEs related to the study drug: headache: 11%
  AEs related to the study drug: nausea: 15%
  AEs related to the study drug: upper abdominal pain: 11%
  patients who experienced Serious AEs (SAE): Three
[8]; Part A Safety Population, 20 of 27
  patients who experienced a TEAE: 74%
[8]; Part A, Day 26, patient with type II diabetes
  only treatment related SAE: cellulitis (Grade 3)
[8]; Part A, number of AEs out of all AEs
  AEs that were Grade 1 or 2: 94/97
[9]
  exposure of the tablet relative to the equal dose of the liquid formulation: ~ 70%
[10]; 400 mg QD only, 2 weeks, n = 14 (FIG. 6)
  patients who achieved CDA: 29%
[10]; 400 mg QD only, 4 weeks, n = 14 (FIG. 6)
  patients who achieved CDA: 43%
[10]; 400 mg QD only, 4 weeks, n = 14 (FIG. 8B, 80% CI)
  patients who achieved CDA: 50%
[10]; 400 mg QD only, 12 weeks, n = 14 (FIG. 6)
  patients who achieved CDA: 50%
[10]; 400 mg QD only, 12 weeks, n = 14 (FIG. 8B, 80% CI)
  patients who achieved CDA: 50%
[10]; 400 mg QD only, 12 weeks, n = 14 (FIG. 9B)
  patients who achieved complete remission (CR): 7%
[10]; 400 mg QD only, 24 weeks, n = 14 (FIG. 9B)
  patients who achieved complete remission (CR): 7%
[10]; 400 mg QD only, 28 weeks (24 on, 4 off treatment), n = 14 (FIG. 9B)
  patients who achieved complete remission (CR): 7%
[10]; 400 mg QD with dose adjustment up to 600 mg BID, 2 weeks, n = 15 (FIG. 7)
  patients who achieved CDA: 27%
[10]; 400 mg QD with dose adjustment up to 600 mg BID, 4 weeks, n = 15 (FIG. 7)
  patients who achieved CDA: 53%
[10]; 400 mg QD with dose adjustment up to 600 mg BID, 12 weeks, n = 15 (FIG. 7)
  patients who achieved CDA: 80%
[10]; 24 weeks of PRN1008 treatment
  daily corticosteroid usage: decreased
[10]; at 12 weeks
  Median PDAI: 4
[10]; at 24 weeks, 10 out of 15
  patients having reached a PDAI of 1 or 0: 67%
[10]; at 24 weeks
  Median PDAI: 1
[10]; by 24 weeks
  reduction in mean PDAI activity score: 79%
  reduction in median PDAI activity score: 94%
[10]; dose adjustment up to 600 mg BID, 4 weeks, n = 15 (FIG. 8A, 80% CI)
  patients who achieved CDA: 60%
[10]; dose adjustment up to 600 mg BID, 12 weeks (FIG. 9A)
  patients who achieved complete remission (CR): 13%
[10]; dose adjustment up to 600 mg BID, 12 weeks, n = 15 (FIG. 8A, 80% CI)
  patients who achieved CDA: 87%
[10]; dose adjustment up to 600 mg BID, 24 weeks (FIG. 9A)
  patients who achieved complete remission (CR): 33%
[10]; dose adjustment up to 600 mg BID, 28 weeks (24 on, 4 off treatment) (FIG. 9A)
  patients who achieved complete remission (CR): 40%

## C=CC(=O)Nc1cccc(Nc2nc(Nc3ccc(OCCOC)cc3)ncc2F)c1 [CC-292]
[11]
  tolerability: well tolerated
